Assay [1] deals with Hepatitis C virus subtype 1b. The assay can be described thus: Inhibition of HCV J4 genotype 1b NS5Bdelta21 polymerase using homopolymeric RNA at 20 uM by SYBR Green assay.
A short description of assay [2]: Inhibition of HCV J4 genotype 1b NS5Bdelta21 polymerase using homopolymeric RNA by SYBR Green assay. On the set-up: species or system Hepatitis C virus subtype 1b.

What is called inhibition is the percentage by which the read-out fell short of the control. A lower inhibition goes with a weak effect. With `O=C1/C(=C/c2ccc3ccccc3n2)Oc2cc(O)cc(O)c21`, in assay [1], the inhibition worked out at 42%.

As usually defined, the IC50 is the concentration that inhibits the measured activity by half. High values mean a need for much substance, low ones inhibition by little substance. With `CC(C)=CCn1cc(/C=C2\Oc3cc(O)cc(O)c3C2=O)c2ccccc21`, the midpoint of inhibition in assay [2], the IC50, lay at 3 µM. The same compound came in with an inhibition in assay [1] of 94.7%. On the same counts, the results for `O=C1/C(=C/c2cn(CC3CCCCC3)c3ccccc23)Oc2cc(O)cc(O)c21` are 3.3 µM and 93%. On the same counts, the results for `O=C1/C(=C/c2ccc(CO)o2)Oc2cc(O)cc(O)c21` are more than 16 µM and 33%. The compound `CCCCn1cc(/C=C2\Oc3cc(O)cc(O)c3C2=O)c2cccc(OC)c21` returned an inhibition in assay [1] of 93.1%. In the case of `O=C1/C(=C/c2ccc(-c3cccs3)cc2)Oc2cc(O)cc(O)c21`, the IC50 in assay [2] came to 4 µM. Also, in assay [1], the inhibition is 97%.

`O=C1/C(=C/c2cn(Cc3cccc(Br)c3)c3ccccc23)Oc2cc(O)cc(O)c21` showed an IC50 in assay [2] of 2.4 µM. For the same compound, the inhibition in assay [1] is 96%. `CCCCn1ccc2cc(/C=C3\Oc4cc(O)cc(O)c4C3=O)ccc21` yielded an inhibition in assay [1] of 94.3%. Consider `O=C1/C(=C/c2ccc3ccccc3c2)Oc2cc(O)cc(O)c21`, for which half-maximal inhibition in assay [2] (IC50) was put at 3.4 µM. The inhibition in assay [1] was 95%. For `Cc1cccc(Cn2cc(/C=C3\Oc4cc(O)cc(O)c4C3=O)c3ccccc32)c1` the same measures were 2.6 µM and 95.6%.

`Cn1cccc1/C=C1\Oc2cc(O)cc(O)c2C1=O` displayed an IC50 in assay [2] of more than 16 µM. Further, in assay [1], the inhibition was 55%. For `O=C1/C(=C/c2ccco2)Oc2cc(O)cc(O)c21` the same measures were more than 16 µM and 27%. On the same counts, the results for `O=C1/C(=C/c2cn(Cc3cccc(O)c3)c3ccccc23)Oc2cc(O)cc(O)c21` are 2.4 µM and 99.3%.

For `O=C1/C(=C/c2cnc[nH]2)Oc2cc(O)cc(O)c21`, the 50% inhibitory concentration (IC50) in assay [2] was more than 16 µM. Besides, in assay [1], the inhibition was determined as 39%. On the same counts, the results for `Cn1cc(/C=C2\Oc3cc(O)cc(O)c3C2=O)c2ccccc21` are 6 µM and 90%. For `CCCCn1c(C)c(/C=C2\Oc3cc(O)cc(O)c3C2=O)c2ccccc21`, the inhibition in assay [1] is 91.6%.

`O=C1/C(=C/c2cn(CCc3ccccc3)c3ccccc23)Oc2cc(O)cc(O)c21` gave a half-inhibitory concentration (IC50) in assay [2] of 3.2 µM. Further, the inhibition in assay [1] amounted to 93.9%.

With `Cn1c(/C=C2\Oc3cc(O)cc(O)c3C2=O)cc2ccccc21`, in assay [2], the IC50 was found to be 3.1 µM. For the same compound, the inhibition in assay [1] was found to be 97.8%.

In turn, `O=C1/C(=C/c2ccc3[nH]cnc3c2)Oc2cc(O)cc(O)c21` showed an IC50 in assay [2] of 10 µM. The compound also returned an inhibition in assay [1] of 81%.

Compound `CCCCn1c(/C=C2\Oc3cc(O)cc(O)c3C2=O)cc2ccccc21` returned an IC50 in assay [2] of 3 µM. In assay [1], this compound yielded an inhibition of 98.4%.

`COc1cccc(Cn2cc(/C=C3\Oc4cc(O)cc(O)c4C3=O)c3ccccc32)c1` showed a 50% inhibitory concentration (IC50) in assay [2] of 2.7 µM. Besides, in assay [1], the inhibition came out at 95.4%. For `O=C1/C(=C/c2ccc(C(F)(F)F)cc2)Oc2cc(O)cc(O)c21` the same measures were 5.4 µM and 96%. On the same counts, the results for `CCCCn1cc(/C=C2\Oc3cc(O)cc(O)c3C2=O)c2cccc(O)c21` are 2.3 µM and 98.9%.

As to `O=C1/C(=C/c2cn(CCCc3ccccc3)c3ccccc23)Oc2cc(O)cc(O)c21`, the IC50 in assay [2] came out at 2.7 µM. The compound also came in with an inhibition in assay [1] of 93%. For `CN(C)c1ccc(/C=C2\Oc3cc(O)cc(O)c3C2=O)cc1` the same measures were 5 µM and 90%. For `O=C1/C(=C/c2ccc(N3CCCCC3)cc2)Oc2cc(O)cc(O)c21` the same measures were 5.5 µM and 93%.

The compound `CCCCOc1ccc(/C=C2\Oc3cc(O)cc(O)c3C2=O)c(OCCCC)c1` had an IC50 in assay [2] of 4 µM. Moreover, in assay [1], the inhibition stood at 90%. Turning to `O=C1/C(=C/c2cccc3ccccc23)Oc2cc(O)cc(O)c21`, in assay [1], the inhibition came out at 45%.

`CCCCn1cc(/C=C2\Oc3cc(O)cc(O)c3C2=O)c2cc(C)ccc21` yielded an inhibition in assay [1] of 96%. On the same count and under the same terms, the figure for `CCCCn1cc(/C=C2\Oc3cc(O)cc(O)c3C2=O)c2cc(OC)ccc21` is 93.8%.

`O=C1/C(=C/c2ccc(-c3ccccc3)cc2)Oc2cc(O)cc(O)c21` showed an IC50 in assay [2] of 4 µM. Besides, the inhibition in assay [1] was determined as 93%. `CCCCOc1ccc(/C=C2\Oc3cc(O)cc(O)c3C2=O)cc1` yielded an inhibition in assay [1] of 81%.

`O=C(O)CCCn1cc(/C=C2\Oc3cc(O)cc(O)c3C2=O)c2ccccc21` yielded an inhibition in assay [1] of 70%. On the same count and under the same terms, the figure for `CCCCn1cc(/C=C2\Oc3cc(O)cc(O)c3C2=O)c2cccc(C)c21` is 92.5%. The compound `CC(C)Cn1cc(/C=C2\Oc3cc(O)cc(O)c3C2=O)c2ccccc21` displayed an IC50 in assay [2] of 8 µM. This compound returned an inhibition in assay [1] of 80.7%. Take `CCCCn1cc(/C=C2\Oc3cc(O)cc(O)c3C2=O)c2cc(O)ccc21`: the inhibition in assay [1] came out at 53.5%. In assay [2], `O=C1/C(=C/c2cn(Cc3ccccc3)c3ccccc23)Oc2cc(O)cc(O)c21` yielded a half-maximal inhibitory concentration (IC50) of 2.6 µM. The compound further had an inhibition in assay [1] of 96.2%.

The values are drawn from ChEMBL document CHEMBL3259757, “B-ring modified aurones as promising allosteric inhibitors of hepatitis C virus RNA-dependent RNA polymerase” (Eur J Med Chem, 2014).
